{
  "source": "patent US6417397B1",
  "about": "“N-substituted alkylamino acids for use as amino-protecting groups” (The Regents of the University of California, San Diego, priority 1999, dated 2002)",
  "assay": "Acidolysis (rate of scission) of acylated NMeAib amides with 2% TFA in acetonitrile",
  "assay_type": "physicochemical",
  "conditions": "for t½ of protecting group: mild acidic conditions (2% TFA in acetonitrile)",
  "excerpt": "In accordance with the present invention, it has been discovered that the rate of reaction can be altered simply by modifying X. Thus, for electron-donating X groups the rate of scission (the sensitivity to acidic conditions) increases. The opposite effect holds true for electron-withdrawing X groups. Four p-substituted benzoyl-N—MeAib—Phe—OMe (7a-d) compounds were subjected to acidic conditions (2% trifluoroacetic acid (TFA) in acetonitrile) and the rate of scission measured for each protecting group.\nThe equation representing the line in FIG. 1 is particularly useful because it allows one to predict the rate of scission for any m-substituted or p-substituted X—C6H4C(O)—NMeAib amide where a for the parent acid is known. […]",
  "key": {"[1]": {"conditions": "acidolysis with 2% TFA in acetonitrile"}},
  "data": [
    {"molecule": "COC(=O)[C@H](Cc1ccccc1)NC(=O)C(C)(C)N(C)C(=O)c1ccc(C(F)(F)F)cc1", "note": "[CF3, p-CF3—C6H4C(O)—NMeAib—Phe—OMe]", "values": [
      {"measurement": "Half-life", "setting": "[1]", "value": 5, "unit": "h"},
      {"measurement": "k", "setting": "[1]", "value": "3.7e-05 ± 2e-06", "unit": "s⁻¹"}
    ]},
    {"molecule": "COC(=O)[C@H](Cc1ccccc1)NC(=O)C(C)(C)N(C)C(=O)c1ccc(C#N)cc1", "note": "[CN, p-CN—C6H4C(O)—NMeAib—Phe—OMe]", "values": [
      {"measurement": "Half-life", "setting": "[1]", "value": 8, "unit": "h"},
      {"measurement": "k", "setting": "[1]", "value": "2.3e-05 ± 1e-06", "unit": "s⁻¹"}
    ]},
    {"molecule": "COC(=O)[C@H](Cc1ccccc1)NC(=O)C(C)(C)N(C)C(=O)c1ccc(Cl)cc1", "note": "[Cl, p-Cl—C6H4C(O)—NMeAib—Phe—OMe]", "values": [
      {"measurement": "Half-life", "setting": "2% TFA in acetonitrile", "value": "about 2 hours"},
      {"measurement": "Half-life", "setting": "[1]", "value": 2, "unit": "h"},
      {"measurement": "k", "setting": "[1]", "value": "8.3e-05 ± 3e-06", "unit": "s⁻¹"}
    ]},
    {"molecule": "COC(=O)[C@H](Cc1ccccc1)NC(=O)C(C)(C)N(C)C(=O)c1ccc([N+](=O)[O-])cc1", "note": "[NO2, p-NO2—C6H4—C(O)—NMeAib—Phe—OMe]", "values": [
      {"measurement": "Half-life", "setting": "2% TFA in acetonitrile", "value": "about 12 hours"},
      {"measurement": "Half-life", "setting": "[1]", "value": 12, "unit": "h"},
      {"measurement": "k", "setting": "[1]", "value": "1.5e-05 ± 1e-06", "unit": "s⁻¹"}
    ]},
    {"molecule": "COc1ccc(C(=O)N(C)C(C)(C)C(=O)O)cc1", "note": "[p-methoxy-benzoyl-NMeAib]", "values": [
      {"measurement": "t½ of protecting group", "value": 0.333, "unit": "h"}
    ]},
    {"molecule": "p-N(CH3)2C6H4C(O)—NMeAib", "values": [
      {"measurement": "half life predicted from the linear free energy equation of FIG. 1", "setting": "predicted from σ of the parent acid, X = dimethylamino", "value": "about 29 seconds"}
    ]},
    {"molecule": "p-nitro-benzoyl-NMeAib", "values": [
      {"measurement": "t½ of protecting group", "value": 12, "unit": "h"}
    ]}
  ]
}
